Assay results taken from patent US8211909B2, “Treatment of antibiotic-resistant bacteria infection” (TaiGen Biotechnology Co., Ltd., priority 2008, dated 2012).
Values after ≈ are worked out from the molar mass of the structure shown. Where two headings read alike, the source gives them in different places.

Assays:
S. pneumoniae = assay: CANWARD 2007 gram-positive cocci, CLSI broth microdilution; type: cell-based, Streptococcus pneumoniae; set-up: MIC50 / MIC90: unit not given here
Method: From January-December 2007, 12 hospitals across Canada submitted isolates from patients attending hospital clinics, emergency rooms, medical and surgical wards, and intensive care units. 7881 isolates (CANWARD 2007) were collected including 3473 gram-positive cocci. Susceptibility testing for Compound 1 and Levofloxacin was performed using the Clinical and Laboratory Standards Institute broth microdilution.

[1] = Pharmacokinetic assays of plasma of subjects taking Compound 1; settings: for Cmax: day 10, plasma; for Free AUC0-24 / Free Cmax: corrected for plasma protein binding
Method: 5 mL of each sample was transferred to a heparin sodium tube and immediately placed on ice. Plasma was separated by centrifugation at approximately 4° C. and transferred to appropriately labeled polypropylene specimen containers (two tubes with 1-1.5 mL plasma/tube) and frozen at approximately −70° C. before use.
Prior to analysis of the blood samples, pharmacokinetic assays were validated.
The pharmacokinetic assays of the blood samples were performed by Charles River Laboratories (Worcester, Mass.).

[2] = test system: Staphylococcus aureus strains (MRSA, hVISA, VISA, VRSA, quinolone-resistant MRSA); assay: MIC by agar dilution against Staphylococcal strains (MRSA, hVISA, VISA, VRSA, quinolone-resistant MRSA); type: cell-based; settings: for MIC50 / MIC90 / MIC: Staphylococcus aureus
Method: Compound 1 was tested for its inhibitory effect against 26 Methicillin-resistant Staphylococcus aureus (MRSA) strains, 2 hetero-Vancomycin intermediate Staphylococcus aureus (hVISA) strains, 24 Vancomycin-intermediate Staphylococcus aureus (VISA) strains, 5 Vancomycin-resistant Staphylococcus aureus (VRSA) strains, and 31 quinolone-resistant Vancomycin-susceptibale MRSA strains with defined mutations in QRDR. These mutations were determined by sequencing analysis of the QRDR (gyrA, gyrB, grlA, and grlB). Efflux testing was performed by the reserpine method (Brenwald, et al., Antimicrob. Agents Chemother. 1998, 42: 2032-2035).

[3] = 500 mg q24 p.o., MIC90 0.125 μg/mL
[4] = 500 mg q24 p.o., MIC90 0.5 μg/mL
[5] = 500 mg q24 p.o., MIC90 0.75 μg/mL
[6] = 750 mg q24 p.o., MIC90 0.125 μg/mL
[7] = 750 mg q24 p.o., MIC90 0.5 μg/mL
[8] = 750 mg q24 p.o., MIC90 0.75 μg/mL
[9] = 1000 mg q24 p.o., MIC90 0.125 μg/mL
[10] = 1000 mg q24 p.o., MIC90 0.5 μg/mL
[11] = 1000 mg q24 p.o., MIC90 0.75 μg/mL
[12] = 1000 mg q24 p.o., MIC90 1 μg/mL
[13] = hVISA(2) + VISA (24) + VRSA (5)

## COc1c(N2C[C@@H](C)C[C@H](N)C2)ccc2c(=O)c(C(=O)O)cn(C3CC3)c12 [Compound 1, (3S,5S)-7-[3-amino-5-methyl-piperidinyl]-1-cyclopropyl-1,4-dihydro-8-methoxy-4-oxo-3-quinolinecarboxylic acid]
S. pneumoniae; PenI-SPN, PenR-SPN, CipR-SPN
  activity compared with Levofloxacin (in words): more active than Levofloxacin
S. pneumoniae; SPN CipR (29)
  MIC50: 0.03
  MIC90: 0.12
S. pneumoniae; SPN PenI (103)
  MIC50: 0.015/0.015
  MIC90: 0.015/0.015
S. pneumoniae; SPN PenR (34)
  MIC50: 0.015
  MIC90: 0.03
S. pneumoniae; SPN PenS (519)
  MIC50: 0.015/0.015
  MIC90: 0.015/0.015
S. pneumoniae; SPN-All (656)
  MIC50: 0.015/0.015
  MIC90: 0.015/0.015
[1]; 500 mg q24 p.o.
  Cmax: 5560 ng/mL
  Free AUC0-24: 32400 ng·h/mL
  Free Cmax: 4700 ng/mL
[1]; [3]
  Free AUC0-24/MIC90 ratio at steady state: 259
  Free Cmax/MIC90 ratio at steady state: 37
[1]; [4]
  Free AUC0-24/MIC90 ratio at steady state: 65
  Free Cmax/MIC90 ratio at steady state: 9
[1]; [5]
  Free AUC0-24/MIC90 ratio at steady state: 43
  Free Cmax/MIC90 ratio at steady state: 6
[1]; 500 mg q24 p.o., MIC90 1 μg/mL
  Free AUC0-24/MIC90 ratio at steady state: 32
  Free Cmax/MIC90 ratio at steady state: 5
[1]; 500 mg q24 p.o., MIC90 […]
  Free AUC0-24/MIC90 ratio at steady state: 130
  Free Cmax/MIC90 ratio at steady state: 19
[1]; 750 mg q24 p.o.
  Cmax: 6820 ng/mL
  Free AUC0-24: 49100 ng·h/mL
  Free Cmax: 5700 ng/mL
[1]; [6]
  Free AUC0-24/MIC90 ratio at steady state: 393
  Free Cmax/MIC90 ratio at steady state: 46
[1]; [7]
  Free AUC0-24/MIC90 ratio at steady state: 98
  Free Cmax/MIC90 ratio at steady state: 11
[1]; [8]
  Free AUC0-24/MIC90 ratio at steady state: 65
  Free Cmax/MIC90 ratio at steady state: 8
[1]; 750 mg q24 p.o., MIC90 1 μg/mL
  Free AUC0-24/MIC90 ratio at steady state: 49
  Free Cmax/MIC90 ratio at steady state: 6
[1]; 750 mg q24 p.o., MIC90 […]
  Free AUC0-24/MIC90 ratio at steady state: 196
  Free Cmax/MIC90 ratio at steady state: 23
[1]; 1000 mg q24 p.o.
  Cmax: 8200 ng/mL
  Free AUC0-24: 62900 ng·h/mL
  Free Cmax: 6900 ng/mL
[1]; [9]
  Free AUC0-24/MIC90 ratio at steady state: 503
  Free Cmax/MIC90 ratio at steady state: 55
[1]; [10]
  Free AUC0-24/MIC90 ratio at steady state: 126
  Free Cmax/MIC90 ratio at steady state: 14
[1]; [11]
  Free AUC0-24/MIC90 ratio at steady state: 84
  Free Cmax/MIC90 ratio at steady state: 9
[1]; [12]
  Free AUC0-24/MIC90 ratio at steady state: 63
  Free Cmax/MIC90 ratio at steady state: 7
[1]; 1000 mg q24 p.o., MIC90 […]
  Free AUC0-24/MIC90 ratio at steady state: 251
  Free Cmax/MIC90 ratio at steady state: 28
[2]; Methicillin-resistant, hVISA, VISA, VRSA and quinolone-resistant Vancomycin-susceptible MRSA isolates
  inhibition (in words): effectively inhibited
[2]; MRSA (26)
  MIC50: 0.03 µg/mL (≈ 0.0808 µM)
  MIC90: 0.06 µg/mL (≈ 0.162 µM)
[2]; Quinolone-resistant MRSA (31)
  MIC50: 1 µg/mL (≈ 2.69 µM)
  MIC90: 2 µg/mL (≈ 5.38 µM)
[2]; [13]
  MIC50: 1 µg/mL
  MIC90: 2 µg/mL
[2]; read-out: MIC Range, MRSA (26)
  MIC: 0.016 to 0.06 µg/mL (≈ 0.0431 to 0.162 µM)
[2]; read-out: MIC Range, Quinolone-resistant MRSA (31)
  MIC: 0.5 to 4 µg/mL (≈ 1.35 to 10.8 µM)
[2]; read-out: MIC Range, hVISA(2) + VISA (24) + VRSA (5)
  MIC: 0.06 to 2 µg/mL
[2]; read-out: MICs, against these strains
  MIC: 0.06 to 4 µg/mL (≈ 0.162 to 10.8 µM)
